{"source": "patent US9650399B2", "about": "“Salicylic acid derivatives, pharmaceutically acceptable salt thereof, composition thereof and method of use thereof” (The Governing Council of the University of Toronto, priority 2012, dated 2017)", "key": {"BTSC68EF": {"test_system": "BTSC68EF", "assay": "alamarBlue cell viability, BTSC 68EF", "assay_type": "cell-based, human", "details": "Table 4 library screen, alamarBlue; for IC50: Homo sapiens, read-out: 68EF IC50", "method": "(§1) First, the library was screened for biological activity against a set of three representative GBM BTSCs derived from GBM patients, including the very aggressive GBM BTSC lines, BTSC73M, BTSC30M, BTSC68EF. Dissociated BTSC spheres were seeded at 1500 cells/96-well and treated with drug compound or vehicle (DMSO) one day after plating. Cell viability following drug treatment was assessed after 72 hrs using the ALAMARBLUE™ assay (Invitrogen) according to the manufacturer's instructions. All culture experiments were performed in triplicate with a minimum of three wells per condition.\n(§2) BTSC spheres were dissociated to single cells with the enzyme Accumax (Innovative Technologies), seeded at 1500 cells/96-well and treated with drug or vehicle (DMSO) one day after plating. […] BTSC spheres were dissociated to single cells as above and plated in 96 well plates in triplicate at 3000 cells/96-well. […] Cell viability following drug treatment was assessed three days later using the ALAMARBLUE™ assay (Invitrogen) according to the manufacturer's instructions. All culture experiments were performed in triplicate with a minimum of three wells per condition."}, "BTSC73M": {"test_system": "BTSC73M", "assay": "alamarBlue cell viability, BTSC 73M", "assay_type": "cell-based, human", "details": "for IC50 / 73M IC50 (μM): alamarBlue", "method": "as §1, §2"}, "147EF": {"test_system": "147EF", "assay": "alamarBlue cell viability, BTSC 147EF", "assay_type": "cell-based, human", "details": "Homo sapiens, Table 4 library screen", "excerpt": "BTSC spheres were dissociated to single cells with the enzyme Accumax (Innovative Technologies), seeded at 1500 cells/96-well and treated with drug or vehicle (DMSO) one day after plating. Cytotoxicity studies were repeated independently at Sickkids Hospital using BTSC lines 25M, 67EF, 73EF, 84EF and 127EF. BTSC spheres were dissociated to single cells as above and plated in 96 well plates in triplicate at 3000 cells/96-well. In both sets of experiments drugs were used as serial dilutions within the range of 5 μM to 100 nM in the first set and 25 μM to 10 nM. Cell viability following drug treatment was assessed three days later using the ALAMARBLUE™ assay (Invitrogen) according to the manufacturer's instructions. All culture experiments were performed in triplicate with a minimum of three wells per condition. Table 4 below illustrates a screen of the library against a number of BTSCs using ALAMARBLUE™ assay."}, "BTSCs": {"test_system": "BTSCs", "assay": "alamarBlue cytotoxicity across BTSC lines", "assay_type": "cell-based, human", "details": "Homo sapiens", "method": "as §1, §2"}, "[1]": {"test_system": "normal human fetal astrocytes (HF 2003, HF 2006, HF 2009, HF 2013)", "assay": "toxicity in normal human fetal astrocytes", "assay_type": "cell-based", "details": "concentrations of up to 5 μM", "method": "Given the nM cytoxicity, these compounds were assayed for biological effects in healthy cells.\nGBM BTSCs were cultured from a series of tumor specimens obtained following informed consent from adult GBM patients during their operative procedure as previously described (Kelly et al, Stem Cells 2009) and approved by the University of Calgary Ethics Review Board. Briefly, BTSC cultures were initiated in serum-free defined culture medium (SFM) and gave rise to nonadherent spheres after 7 to 21 days in culture. Primary tumor spheres were expanded for several passages and then cryopreserved in 10% DMSO (Sigma Aldrich) in serum-free defined medium until use in experiments. Human fetal neural stem cells were also cultured as previously described and induced to differentiate into astrocytes by addition of 10% fetal bovine serum and removal of EGF, FGF-2 and heparan sulfate."}, "pSTAT3 (Y705)": {"test_system": "pSTAT3 (Y705)", "assay": "Western blot of phosphorylated STAT3 in BTSCs", "assay_type": "cell-based, human", "details": "Western blot", "excerpt": "Blots were stained with antibodies: phospho-Y705, phospho-S727, Bcl-xL, cyclin D1, PARP and Actin. Bands were visualized with the ECL PLUS™ Western Blotting Detection System and […]™ (Amersham). […] BTSC spheres were lysed in modified RIPA buffer supplemented with Complete Mini protease (Roche) and Halt phosphatase (Thermo Scientific) inhibitor cocktails. […] Blots were stained with the following antibodies: phospho-STAT3 Y705 (1:1000, Cell Signalling Technology), phospho-STAT3 S727 (1:1000, Cell Signalling Technology), STAT3 (1:1000, Santa Cruz Biotechnology), Bcl-xL (1:1000, Cell Signalling Technology), cyclin D1 (1:1000, Cell Signalling Technology) PARP (1:1000, Cell Signalling Technology) and Actin (1:2500, Santa Cruz Biotechnology). HRP conjugated secondary antibodies, goat anti-rabbit (Cell Signalling Technology) were used at 1:2000 and donkey anti-mouse, donkey anti-goat, and goat anti-rabbit, (Calbiochem) were used at 1:6000. Bands were visualized with the ECL Plus Western Blotting Detection System and Hyperfilm (Amersham)."}, "BTSC30M": {"test_system": "BTSC30M", "assay": "alamarBlue cell viability, BTSC 30M", "assay_type": "cell-based, human", "method": "as §1, §2"}, "STAT3 SH2 domain": {"target": "STAT3 SH2 domain (Homo sapiens, UniProt P40763)", "sequence (P40763 whole entry, the tested form may be a part)": "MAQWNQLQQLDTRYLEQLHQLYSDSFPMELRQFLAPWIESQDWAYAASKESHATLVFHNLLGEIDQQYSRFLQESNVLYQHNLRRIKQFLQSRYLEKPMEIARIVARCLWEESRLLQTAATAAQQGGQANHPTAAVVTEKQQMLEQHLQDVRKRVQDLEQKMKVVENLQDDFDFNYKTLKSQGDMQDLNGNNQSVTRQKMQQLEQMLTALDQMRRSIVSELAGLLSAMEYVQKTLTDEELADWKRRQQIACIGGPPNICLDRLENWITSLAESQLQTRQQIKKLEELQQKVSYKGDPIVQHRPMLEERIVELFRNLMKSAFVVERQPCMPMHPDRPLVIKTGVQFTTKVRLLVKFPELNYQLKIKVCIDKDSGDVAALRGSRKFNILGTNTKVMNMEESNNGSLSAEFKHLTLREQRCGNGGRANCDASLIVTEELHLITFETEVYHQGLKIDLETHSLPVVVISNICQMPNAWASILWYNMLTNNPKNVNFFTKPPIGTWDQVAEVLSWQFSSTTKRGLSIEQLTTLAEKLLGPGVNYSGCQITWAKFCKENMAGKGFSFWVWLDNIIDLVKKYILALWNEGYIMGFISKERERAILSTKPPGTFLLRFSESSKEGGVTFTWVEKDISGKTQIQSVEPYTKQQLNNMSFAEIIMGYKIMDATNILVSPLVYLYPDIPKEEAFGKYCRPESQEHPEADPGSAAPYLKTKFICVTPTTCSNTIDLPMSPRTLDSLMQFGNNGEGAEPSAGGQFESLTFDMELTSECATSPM", "assay": "fluorescence polarization (FP) assay, STAT3", "details": "5-FAM-GpYLPQTV-NH2 probe", "description": "The buffer used contained 50 mM NaCl, 10 mM Hepes, pH 7.5, 1 mM EDTA and 2 mM dithiothreitol and a final concentration of 5% DMSO.\nTest compounds were dissolved in DMSO and diluted using a dilution medium consisting of 50 mM NaCl, 10 mM Hepes, pH 7.5, 1 mM EDTA, and 2 mM dithiothreitol. Fluorescently-labelled pYLPQTV peptide (FAM-pYLPQTV) was kept at a final concentration of 10 nM in the buffered solution.\nThe midpoint of the saturation curve was used to determine the STAT3 concentration required for the competitive fluorescent polarization assay. […] 7.5 μL of inhibitory molecules (and positive control) solution were individually added to the plate. The final inhibitory concentrations were 100 μL, 50 μL, 25A, 12.5 μL, 6.3 μL, or 3.1 μL. The 10% DMSO buffer solution was incubated for 15-30 minutes before signal measurements by the Infinite M1000."}, "[2]": {"test_system": "patient-derived pancreatic cancer line (Panc10.05)", "assay": "MTS cell survival, pancreatic cancer line", "assay_type": "cell-based", "details": "Homo sapiens, Panc1005, Panc10.05, 72 h, read-out: ED50 (IC50)", "method": "Low passage patient-derived pancreatic cancer line (Panc10.05) was plated in 96-well plates (3×10^3 per well) and allowed to attach overnight. STAT3 inhibitors 31, 41, 42 and 38 were added at indicated concentrations. Cell survival was measured 72 h after drug addition with the MTS assay."}, "His-tagged STAT5": {"target": "His-tagged STAT5", "assay": "surface plasmon resonance (SPR) binding, STAT5", "design": "species or system human", "details": "SPR control experiment", "method": "Interactions of His-tagged STAT3 with small molecules were investigated using SPR spectroscopy. The binding experiments were carried out on a ProteOn XPR36 (Bio-Rad) biosensor at 25° C. using the HTE sensor chip (Bio-Rad, Ontario, Canada). The flow cells of the sensor chip were loaded with a nickel solution at 30 μL/min for 120 s to saturate the Tris NTA surface with Ni(II) ions. Purified His-tagged STAT3 and STAT5 (SignalChem, British Columbia, Canada) in PBST buffer (PBS with 0.005% (v/v) Tween-20 and 0.001% DMSO pH 7.4) was injected in the first and second channels of the chip respectively in the vertical direction at a flow rate of […] for 300 s, which attained, on average, 8000 resonance unit (RU). After a wash with PBST buffer, inhibitors binding to the immobilized proteins were monitored by injecting a range of concentrations along with a blank at a flow rate of 100 μL/min for 200 s for each of these small molecules. When the injection of the small molecule inhibitor was completed, running buffer was allowed to flow over the immobilized substrates for the non-specifically bound inhibitors to dissociate for 600 s. Following dissociation of the inhibitors, the chip surface was regenerated with an injection of 1 M NaCl at a flow rate of […] for 18 s. […] Data were analyzed using ProteOn Manager Software version 3.1. […]"}, "[3]": {"details": "cited from earlier work"}, "[4]": {"details": "Homo sapiens, Table 4 library screen, read-out: 73M IC50"}, "[5]": {"details": "Homo sapiens, read-out: 30M IC50 (μM), Table 4 library screen, alamarBlue"}, "[6]": {"details": "Table 4 library screen, alamarBlue"}}, "note": "Read-outs that look alike come from different tables or passages of the source."}
{"compound": "CC(=O)Oc1cc(N(Cc2ccc(C3CCCCC3)cc2)C(=O)CN(C)S(=O)(=O)c2c(F)c(F)c(F)c(F)c2F)ccc1C(=O)O", "note": "[Compound 22, 2-acetoxy-4-(N-(4-cyclohexylbenzyl)-2-(2,3,4,5,6-pentafluoro-N-methylphenylsulfonamido)acetamido)benzoic acid]", "values": [{"measurement": "IC50", "setting": "BTSC68EF", "value": 891, "unit": "nM"}, {"measurement": "IC50", "setting": "BTSC73M; [4]", "value": 1.45, "unit": "µM"}, {"measurement": "IC50", "setting": "147EF", "value": 776, "unit": "nM"}, {"measurement": "EC50", "setting": "BTSCs; collective range over 8 BTSC lines, read-out: EC50s across all 8 BTSCs evaluated", "value": "66 to 1140", "unit": "nM"}, {"measurement": "IC50", "setting": "BTSCs; collective range, units given in the value, read-out: IC50 values of the top four ranked compounds against BTSCs", "value": "100 to 3800", "unit": "nM"}, {"measurement": "toxicity in normal human cells", "setting": "[1]", "value": "minimal toxicity"}, {"measurement": "pSTAT3 inhibition potency", "setting": "pSTAT3 (Y705); 0, 0.1, 0.5, 1.0 and 5.0 μM", "value": "nM inhibition of pSTAT3"}, {"measurement": "suppression of pSTAT3 (Y705)", "setting": "pSTAT3 (Y705); 1 μM, BTSCs", "value": "most suppression of pSTAT3 (Y705)"}, {"measurement": "IC50", "setting": "BTSC30M; [5]", "value": 0.526, "unit": "µM"}, {"measurement": "IC50", "setting": "BTSC30M; Homo sapiens, read-out: IC50 (nM) in BTSC 30M", "value": "0.526 ± 0.013", "unit": "µM"}]}
{"compound": "CN(CC(=O)N(Cc1ccc(C2CCCCC2)cc1)c1ccc(C(=O)OCOC(=O)C(C)(C)C)cc1)S(=O)(=O)c1c(F)c(F)c(F)c(F)c1F", "note": "[Compound 27, (pivaloyloxy)methyl 4-(N-(4-cyclohexylbenzyl)-2-(2,3,4,5,6-pentafluoro-N-methylphenylsulfonamido)acetamido)benzoate]", "values": [{"measurement": "68EF IC50 (μM)", "setting": "BTSC68EF", "value": "no effect"}, {"measurement": "disruption of STAT3:phosphopeptide interaction / binding activity (in words)", "setting": "STAT3 SH2 domain", "value": "most potent inhibitor of STAT3"}, {"measurement": "30M IC50 (μM)", "setting": "BTSC30M; [6]", "value": "no effect"}]}
{"compound": "CN(CC(=O)N(Cc1ccc(C2CCCCC2)cc1)c1ccccc1)S(=O)(=O)c1c(F)c(F)c(F)c(F)c1F", "note": "[Compound 36, N-(4-cyclohexylbenzyl)-2-(2,3,4,5,6-pentafluoro-N-methylphenylsulfonamido)-N-phenylacetamide]", "values": [{"measurement": "disruption of STAT3:phosphopeptide interaction / binding activity (in words)", "setting": "STAT3 SH2 domain", "value": "no disruption of the STAT3:phosphopeptide interaction"}, {"measurement": "73M IC50 (μM)", "setting": "BTSC73M; Table 4 library screen", "value": "no effect"}]}
{"compound": "CN(CC(=O)N(Cc1ccc(C2CCCCC2)cc1)c1ccc(O)c(C(=O)O)c1)S(=O)(=O)c1c(F)c(F)c(F)c(F)c1F", "note": "[Compound 38, 5-(N-(4-cyclohexylbenzyl)-2-(2,3,4,5,6-pentafluoro-N-methylphenylsulfonamido)acetamido)-2-hydroxybenzoic acid]", "values": [{"measurement": "IC50", "setting": "BTSC68EF", "value": 3050, "unit": "nM"}, {"measurement": "IC50", "setting": "BTSC73M; [4]", "value": 2.55, "unit": "µM"}, {"measurement": "IC50", "setting": "[2]", "value": 4800, "unit": "nM"}, {"measurement": "IC50", "setting": "BTSC30M; [5]", "value": 2.07, "unit": "µM"}]}
{"compound": "Cc1ccc(S(=O)(=O)N(C)CC(=O)N(Cc2ccc(C3CCCCC3)cc2)c2ccc(C(=O)O)cc2)cc1", "note": "[Compound 42, 4-(N-(4-cyclohexylbenzyl)-2-(N,4-dimethylphenylsulfonamido)acetamido)benzoic acid]", "values": [{"measurement": "73M IC50 (μM)", "setting": "BTSC73M; Table 4 library screen", "value": "no effect"}, {"measurement": "IC50", "setting": "[2]", "value": 16700, "unit": "nM"}, {"measurement": "30M IC50 (μM)", "setting": "BTSC30M; [6]", "value": "no effect"}]}
{"compound": "CC(C)C[C@H](NC(=O)[C@@H](N)Cc1ccc(OP(=O)(O)O)cc1)C(=O)N1CCC[C@H]1C(=O)N[C@@H](CCC(N)=O)C(=O)N[C@H](C(=O)N[C@H](C(N)=O)C(C)C)[C@@H](C)O", "note": "[STAT3 peptide sequence]", "values": [{"measurement": "KD (STAT5)", "setting": "His-tagged STAT5", "value": "No binding"}]}
{"compound": "Cucurbitacin [Cucurbitacin 1, reference compound]", "values": [{"measurement": "EC50", "setting": "BTSC73M; BTSC 73M, read-out: EC50 v.s. 73M", "value": 700, "unit": "nM"}, {"measurement": "IC50", "setting": "BTSC73M; Table 2, BTSC 73M, 72 hrs, read-out: IC50 (μM) 73M", "value": "0.7 ± 0.06", "unit": "µM"}, {"measurement": "BBB permeability", "setting": "[3]", "value": "poor BBB permeability"}, {"measurement": "EC50", "setting": "BTSC30M; read-out: EC50 v.s. 30M, BTSC 30M", "value": 630, "unit": "nM"}, {"measurement": "IC50", "setting": "BTSC30M; read-out: IC50 (μM) 30M, Table 2, BTSC 30M, alamarBlue, 72 hrs", "value": "0.63 ± 0.08", "unit": "µM"}]}
